Reference: publication PMC6968383, “Design, synthesis, in vitro and in vivo evaluation of benzylpiperidine-linked 1,3-dimethylbenzimidazolinones as cholinesterase inhibitors against Alzheimer’s disease” (Journal of Enzyme Inhibition and Medicinal Chemistry, 2019)

Legend:
[1] = target: T1, eeAChE (Electrophorus electricus, UniProt O42275); experiment: Kinetic study of AChE inhibition (Lineweaver–Burk); format: biochemical; conditions: Lineweaver–Burk plot, 0, 2, 5, 10, 20 µM
T1 construct: purchased Sigma-Aldrich
T1 sequence (O42275 24-633): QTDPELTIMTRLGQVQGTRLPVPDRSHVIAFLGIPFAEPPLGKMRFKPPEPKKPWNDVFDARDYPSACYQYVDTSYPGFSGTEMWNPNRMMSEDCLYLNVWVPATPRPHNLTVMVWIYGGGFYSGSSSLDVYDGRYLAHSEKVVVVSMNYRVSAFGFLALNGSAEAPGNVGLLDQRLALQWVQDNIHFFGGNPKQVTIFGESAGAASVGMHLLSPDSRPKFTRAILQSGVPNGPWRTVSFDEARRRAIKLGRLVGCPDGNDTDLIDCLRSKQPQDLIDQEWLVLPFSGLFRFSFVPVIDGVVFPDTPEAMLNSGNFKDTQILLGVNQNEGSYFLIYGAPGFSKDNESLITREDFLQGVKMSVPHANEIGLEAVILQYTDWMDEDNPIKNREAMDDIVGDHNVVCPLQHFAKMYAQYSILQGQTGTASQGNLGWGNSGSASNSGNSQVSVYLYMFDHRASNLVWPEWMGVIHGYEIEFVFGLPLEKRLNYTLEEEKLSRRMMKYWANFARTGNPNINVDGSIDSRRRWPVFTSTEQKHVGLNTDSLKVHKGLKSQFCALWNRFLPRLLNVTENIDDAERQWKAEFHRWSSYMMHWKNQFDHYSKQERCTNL
Method: (§1) In each case, the kinetic type of enzyme inhibition was obtained through the modified Ellman’s method and Lineweaver–Burk secondary plots.
(§2) Figure 2. […] (B) Lineweaver–Burk plot for the inhibition of eqBChE by compound 15j at different concentrations of substrate.
Kinetic studies were performed in the same manner as the determination of ChEs inhibition, while the substrate (ATC/BTC) was used in concentrations of 90, 150, 226, 452, and 904 µM. The concentrations of test compounds were set to 0, 2, 5, 10, and 20 µM for 15b and 0, 0.5, 1, 2, and 5 µM for 15j. The enzymatic reaction was extended to 7 min for eeAChE and eqBuChE before the determination of the absorption. Vmax and Km values of the Michaelis–Menten kinetics were calculated by nonlinear regression from substrate-velocity curves using GraphPad Prism 6.0. Linear regression was used for fitting the Lineweaver–Burk plots.

[2] = tested on: PC-12 cells; experiment: In vitro cell toxicity on PC-12 cell line (MTT); format: cell-based; conditions: 10, 20, 30 and 50 µM, 24 h
Text: We focussed on the cell toxicity of the synthesised compounds. Compounds 15b and 15j were selected as representative compounds for the evaluation of their potential cytotoxic effects.
Figure 4. (A) In vitro cell toxicity of 15b and 15j on PC-12 cell line. (B) In vitro hepatotoxicity of 15b and 15j on HepG2 cell line. Data were expressed as mean ± SD (n = 3).
PC12 cell and HepG2 cell (human hepatocellular liver carcinoma cell line purchased from Institute of Materia of Chinese Academy of Medical Science), were grown in DMEM supplemented with 10% FBS at 37 °C in a humidified atmosphere containing 5% CO2. For the experiments, cells (6 × 10^3 cells/well) were seeded in 96-well plate in complete medium. […]

[3] = tested on: scopolamine-induced cognition impairment in ICR mice; experiment: Morris water maze test, scopolamine-induced cognition impairment; format: in vivo; conditions: oral 15 mg kg−1, scopolamine 1 mg kg−1 ip, probe trial on sixth day, mean ± SEM n = 6
Method: The test included 5 days of learning and memory training and a probe trial on the sixth day.
Scopolamine hydrobromide was supplied by Aladdin Reagents (H1507073, Shanghai, China).
Cognitive function was evaluated by the Morris water maze analysis-management system (SMART 3.0, Panlab, Madrid, Spain), according to the method previously described[30].The maze was placed in a lit room with visual cues at 25 °C. An escape platform (10 cm diameter) was located in the centre of one quadrant of the circular pool (120 cm diameter, 60 cm height) with a depth of 40 cm water. The behavioural study of each mouse included 5 days of learning and memory training and a probe trial on day 6. The animal starting positions faced to the pool wall, and were pseudorandomised for each trial. For the cognitive evaluation, each mouse was individually evaluated on both visible-platform (days 1–2) and hidden-platform (days 3–5) versions of the water maze. All mice received nonspatial pretraining during the first two training days, which prepared them for the subsequent spatial learning test. During the two days, mice were trained to find the platform that was labelled by a small flag (5 cm tall). The hidden platform version was used to determine the retention of memory to find the platform. During the hidden-platform training trials, the escape platform was placed 1 cm below the surface of the water. On each day, the animal was subjected to two trials, each of which lasted for 90 s. The time for the mouse to find the platform (a successful escape) was recorded. […] On the last day (day 6), the platform was removed from its location and the animals were given a probe trial in which they had 90 s to search for the platform. The time taken to reach the missing platform and the number of times the animals crossed the platform location were recorded.
Data for the time of escape latency, the trajectory travelled, and the number of platform location crossings were recorded by SMART 3.0, Panlab, Madrid, Spain and processed by GraphPad Prism 6.0.

[4] = target: T2, AChE (EC 3.1.1.7) from electric eel (Electrophorus electricus, UniProt O42275); experiment: biochemical; format: biochemical
T2 construct: purchased Sigma-Aldrich
T2 sequence (O42275 24-633): as above
Method: (§3) The data were expressed as IC50 values (Table 1).
(§4) The inhibitory activities of the target compounds towards AChE (from Electrophorus electricus (electric eeAChE, Sigma-Aldrich) and horse serum BChE (eqBChE, Sigma-Aldrich) or human AChE – huAChE; human BuChE – huBuChE (huAChE, huBuChE, Sigma-Aldrich) were measured by Ellman’s method. In 96-well plates, a mixture of phosphate buffer (0.1 M, pH 8.0, […]), 5,5′-dithiobis-2-nitrobenzoic acid (DTNB, 60 µL), acetylcholinestrase or butyrylcholinesterase (20 µL, 5 IU/mL) and different concentration of the compound solution (30 µL) was pre-incubated for 5 min followed by the addition of the substrate (acetylthiocholine iodide or butyrylthiocholine iodide, 20 µL). […] The measurement of each concentration for each compound was detected in triplicate. GraphPad Prism 6.0 (GraphPad Software, Inc., La Jolla, CA) was used for data processing. The inhibition curve was fitted by plotting percentage enzyme activity (100% for the reference) versus the logarithm of the concentration of tested compound. The half-maximal inhibitory concentration (IC50) values were calculated according to the inhibition curve and the data were shown in the layout of mean ± SEM by GraphPad Prism 6.0.

[5] = target: T3, BChE (EC 3.1.1.8) from horse serum (Equus caballus, UniProt P81908); experiment: biochemical; conditions: eqBChE; mean ± SEM of triplicate independent experiments; read-out: BChE IC50
T3 construct: horse serum BChE (eqBChE, Sigma-Aldrich); purchased Sigma-Aldrich; host or cells: horse serum
T3 sequence (P81908 whole entry): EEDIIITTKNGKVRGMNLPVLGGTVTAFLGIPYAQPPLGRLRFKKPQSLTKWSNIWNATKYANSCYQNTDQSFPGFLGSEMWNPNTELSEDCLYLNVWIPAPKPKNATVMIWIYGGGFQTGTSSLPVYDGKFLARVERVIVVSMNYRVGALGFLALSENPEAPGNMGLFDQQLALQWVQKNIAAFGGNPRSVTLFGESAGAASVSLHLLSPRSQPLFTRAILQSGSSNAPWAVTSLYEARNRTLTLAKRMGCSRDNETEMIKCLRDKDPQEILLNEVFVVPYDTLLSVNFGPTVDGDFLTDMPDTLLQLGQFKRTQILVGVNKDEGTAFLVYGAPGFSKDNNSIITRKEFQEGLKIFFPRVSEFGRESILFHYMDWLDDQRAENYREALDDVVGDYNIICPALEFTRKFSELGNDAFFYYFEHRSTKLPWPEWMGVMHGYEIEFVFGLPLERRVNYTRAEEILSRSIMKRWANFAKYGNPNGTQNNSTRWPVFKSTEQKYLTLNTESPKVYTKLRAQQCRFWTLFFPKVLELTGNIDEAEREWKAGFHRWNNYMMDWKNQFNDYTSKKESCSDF
Method: as §3, §4

[6] = target: T4, eqBChE (Equus caballus, UniProt P81908); experiment: Kinetic study of BChE inhibition (Lineweaver–Burk); format: biochemical; conditions: Lineweaver–Burk plot, 0, 0.5, 1, 2, 5 µM
T4 construct: horse serum BChE (eqBChE, Sigma-Aldrich); purchased Sigma-Aldrich; host or cells: horse serum
T4 sequence (P81908 whole entry): as above
Method: as §1, §2
[…]. The enzymatic reaction was extended to 7 min for eeAChE and eqBuChE before the determination of the absorption. Vmax and Km values of the Michaelis–Menten kinetics were calculated by nonlinear regression from substrate-velocity curves using GraphPad Prism 6.0. Linear regression was used for fitting the Lineweaver–Burk plots.

Row | SMILES | kinetic type of AChE inhibition [1] | cytotoxicity to PC-12 cells [2] | Distance to target [3] [cm] | Latency to target [3] [s] | SI (selectivity index = AChE IC50/BChE IC50) ([4]; eeAChE IC50 / eqBChE IC50) | IC50 ([4]; eeAChE, mean ± SEM of triplicate independent experiments, read-out: AChE IC50) [nM] | IC50 [5] [nM] | kinetic type of BChE inhibition [6]
1 | Cc1ccccc1CN1CCC(CNS(=O)(=O)c2ccc3c(c2)n(C)c(=O)n3C)CC1 [Compound 15b, 1,3-dimethyl-N-((1–(2-methylbenzyl)piperidin-4-yl)methyl)-2-oxo-2,3-dihydro-1H-benzo[d]imidazole-5-sulphonamide] | competitive | no cytotoxicity | 252.32 ± 8.42 | 9.29 ± 0.31 |  |  |  | 
2 | Cn1c(=O)n(C)c2cc(S(=O)(=O)NCC3CCN(Cc4cccc(Br)c4)CC3)ccc21 [Compound 15j, N-((1–(3-bromobenzyl)piperidin-4-yl)methyl)-1,3-dimethyl-2-oxo-2,3-dihydro-1H-benzo[d]imidazole-5-sulphonamide] |  | no cytotoxicity | 350.27 ± 16.59 | 12.85 ± 0.72 | 2.44 | 390 ± 150 | 160 ± 40 | competitive
